In ChEMBL document CHEMBL5352392, “Design, synthesis, and biological evaluation of novel dual inhibitors of heat shock protein 90/mammalian target of rapamycin (Hsp90/mTOR) against bladder cancer cells” (Eur J Med Chem, 2022):
Active and inactive are the calls of the source. The calls are words filed in the database; no cut-off is given here.

Tests used:
[1] = molecular target: T1, Serine/threonine-protein kinase mTOR (Homo sapiens, UniProt P42345); assay: Inhibition of mTOR (unknown origin) by kinase profiling assay
Heat shock protein HSP90 [2] = molecular target: T2, Heat shock protein HSP90 (Homo sapiens, UniProt P07900+P08238); conditions: dose 100.0 nM
Description: Inhibition of Hsp90 (unknown origin) at 100 nM by TR-FRET assay relative to control

[3] = molecular target: Phosphatidylinositol 4,5-bisphosphate 3-kinase catalytic subunit alpha isoform (Homo sapiens, UniProt P42336); assay: Inhibition of PI3Kalpha (unknown origin) by kinase profiling assay
T-24 [4] = assay: Antiproliferative activity against human T24 cells assessed as inhibition of cell proliferation at 1 uM by CCK8 assay relative to control; type: functional
T-24 [5] = assay: Antiproliferative activity against human T24 cells assessed as inhibition of cell proliferation by CCK8 assay; type: functional, cell-based
J82 [6] = assay: Antiproliferative activity against human J82 cells assessed as inhibition of cell proliferation by CCK8 assay; type: functional, cell-based
[7] = molecular target: T1, Serine/threonine-protein kinase mTOR; assay: Inhibition of mTOR (unknown origin) at 100 nM by kinase profiling assay relative to control
SW780 [8] = assay: Antiproliferative activity against human SW780 cells assessed as inhibition of cell proliferation by CCK8 assay; type: functional, cell-based
Heat shock protein HSP90 [9] = molecular target: T2, Heat shock protein HSP90; assay: Inhibition of Hsp90 (unknown origin) by TR-FRET assay; type: protein assay
J82 [10] = assay: Antiproliferative activity against human J82 cells assessed as inhibition of cell proliferation at 1 uM by CCK8 assay relative to control; type: functional
SW780 [11] = assay: Antiproliferative activity against human SW780 cells assessed as inhibition of cell proliferation at 1 uM by CCK8 assay relative to control; type: functional
SW780 [12] = assay: Induction of apoptosis in human SW780 cells assessed as viable cells at 0.5 uM incubated for 24 hrs by Annexin V-FITC/PI staining based flow cytometry (reference value: 92.3 %); type: functional; conditions: read-out: Activity
SW780 [13] = assay: Upregulation of intracellular cathepsin B activity in human SW780 cells; type: functional, cell-based
SW780 [14] = assay: Upregulation of intracellular cathepsin B activity in human SW780 cells in presence of Baf-A1; type: functional, cell-based
J82 [15] = assay: Antitumor activity against human J82 cells xenografted in nude Balb/c mouse assessed as tumor growth inhibition at 30 mg/kg, po administered everyday for 17 days; type: functional, organism-based; conditions: time 17.0 day
SW780 [16] = assay: Downregulation of phosphorylated AKT level in human SW780 cells at 0.2 to 0.5 uM by Western blot analysis; type: functional, cell-based; conditions: dose 0.2-0.5 µM
SW780 [17] = assay: Downregulation of CDK4 level in human SW780 cells at 0.2 to 0.5 uM by Western blot analysis; type: functional, cell-based; conditions: dose 0.2-0.5 µM
SW780 [18] = assay: Upregulation of intracellular cathepsin B activity in human SW780 cells in presence of 3-MA; type: functional, cell-based
SW780 [19] = assay: Upregulation of LC3-II level in human SW780 cells at 0.2 to 0.5 uM by Western blot analysis; type: functional, cell-based; conditions: dose 0.2-0.5 µM
SW780 [20] = assay: Upregulation of cleaved caspase-3 level in human SW780 cells at 0.2 to 0.5 uM by Western blot analysis; type: functional, cell-based; conditions: dose 0.2-0.5 µM
J82 [21] = assay: Antitumor activity against human J82 cells xenografted in nude Balb/c mouse assessed as increase in LC3-II level at 30 mg/kg, po administered everyday for 17 days by IHC analysis; type: functional, organism-based; conditions: time 17.0 day
SW780 [22] = assay: Antiproliferative activity against human SW780 cells assessed as cell survival at 0.5 uM measured after 72 hrs by CCK8 assay relative to control; type: functional; conditions: read-out: Activity
SW780 [23] = assay: Induction of apoptosis in human SW780 cells assessed as early apoptotic cells at 0.2 uM incubated for 24 hrs by Annexin V-FITC/PI staining based flow cytometry (reference value: 1.43 %); type: functional
SW780 [24] = assay: Induction of apoptosis in human SW780 cells assessed as necrotic cells at 0.5 uM incubated for 24 hrs by Annexin V-FITC/PI staining based flow cytometry (reference value: 92.3 %); type: functional
SW780 [25] = assay: Induction of apoptosis in human SW780 cells assessed as late apoptotic cells at 0.5 uM incubated for 24 hrs by Annexin V-FITC/PI staining based flow cytometry (reference value: 2.30 %); type: functional
J82 [26] = assay: Antitumor activity against human J82 cells xenografted in nude Balb/c mouse assessed as decrease in mTOR phosphorylation level at 30 mg/kg, po administered everyday for 17 days by IHC analysis; type: functional, organism-based; conditions: time 17.0 day
SW780 [27] = assay: Downregulation of c-Raf level in human SW780 cells at 0.2 to 0.5 uM by Western blot analysis; type: functional, cell-based; conditions: dose 0.2-0.5 µM
SW780 [28] = assay: Induction of autophagy in human SW780 cells transfected with GFP-LC3 assessed as formation of autophagosomes at 0.5 uM incubated for 24 hrs by laser scanning confocal microscopic analysis; type: functional, cell-based
SW780 [29] = assay: Downregulation of CDC2 level in human SW780 cells at 0.2 to 0.5 uM by Western blot analysis; type: functional, cell-based; conditions: dose 0.2-0.5 µM
SW780 [30] = assay: Induction of apoptosis in human SW780 cells assessed as viable cells at 0.2 uM incubated for 24 hrs by Annexin V-FITC/PI staining based flow cytometry (reference value: 92.3 %); type: functional; conditions: read-out: Activity
J82 [31] = assay: Antitumor activity against human J82 cells xenografted in nude Balb/c mouse assessed as […] at 30 mg/kg, po administered everyday for 17 days by IHC analysis; type: functional, organism-based; conditions: time 17.0 day
SW780 [32] = assay: Induction of apoptosis in human SW780 cells assessed as late apoptotic cells at 0.2 uM incubated for 24 hrs by Annexin V-FITC/PI staining based flow cytometry (reference value: 2.30 %); type: functional
SW780 [33] = assay: Downregulation of phosphorylated mTOR level in human SW780 cells at 0.2 to 0.5 uM by Western blot analysis; type: functional, cell-based; conditions: dose 0.2-0.5 µM
SW780 [34] = assay: Upregulation of Hsp70 level in human SW780 cells by Western blot analysis; type: functional, cell-based; conditions: dose 0.2-0.5 µM
SW780 [35] = assay: Downregulation of p62 level in human SW780 cells at 0.2 to 0.5 uM by Western blot analysis; type: functional, cell-based; conditions: dose 0.2-0.5 µM
SW780 [36] = assay: Induction of autophagy in human SW780 cells transfected with GFP-LC3 assessed as formation of autophagosomes incubated for 6 hrs in presence of 3-MA by laser scanning confocal microscopic analysis; type: functional, cell-based
SW780 [37] = assay: Induction of apoptosis in human SW780 cells assessed as necrotic cells at 0.2 uM incubated for 24 hrs by Annexin V-FITC/PI staining based flow cytometry (reference value: 92.3 %); type: functional
SW780 [38] = assay: Induction of autophagy in human SW780 cells assessed as formation of autophagic vacuoles in cytoplasm by TEM analysis; type: functional, cell-based
[39] = Toxicity in nude Balb/c mouse xenografted with human J82 cells assessed as body weight reduction at 30 mg/kg, po administered everyday for 17 days; type: organism-based; conditions: in vivo, 408 h, time 17 day
SW780 [40] = assay: Upregulation of cytochrome C level in human SW780 cells at 0.2 to 0.5 uM by Western blot analysis; type: functional, cell-based; conditions: dose 0.2-0.5 µM
SW780 [41] = assay: Induction of autophagy in human SW780 cells transfected with GFP-LC3 assessed as formation of autophagosomes incubated for 6 hrs in presence of Baf-A1 by laser scanning confocal microscopic analysis; type: functional, cell-based
SW780 [42] = assay: Induction of apoptosis in human SW780 cells assessed as early apoptotic cells at 0.5 uM incubated for 24 hrs by Annexin V-FITC/PI staining based flow cytometry (reference value: 1.43 %); type: functional

Sequence of Phosphatidylinositol 4,5-bisphosphate 3-kinase catalytic subunit alpha isoform (P42336 whole entry, canonical isoform): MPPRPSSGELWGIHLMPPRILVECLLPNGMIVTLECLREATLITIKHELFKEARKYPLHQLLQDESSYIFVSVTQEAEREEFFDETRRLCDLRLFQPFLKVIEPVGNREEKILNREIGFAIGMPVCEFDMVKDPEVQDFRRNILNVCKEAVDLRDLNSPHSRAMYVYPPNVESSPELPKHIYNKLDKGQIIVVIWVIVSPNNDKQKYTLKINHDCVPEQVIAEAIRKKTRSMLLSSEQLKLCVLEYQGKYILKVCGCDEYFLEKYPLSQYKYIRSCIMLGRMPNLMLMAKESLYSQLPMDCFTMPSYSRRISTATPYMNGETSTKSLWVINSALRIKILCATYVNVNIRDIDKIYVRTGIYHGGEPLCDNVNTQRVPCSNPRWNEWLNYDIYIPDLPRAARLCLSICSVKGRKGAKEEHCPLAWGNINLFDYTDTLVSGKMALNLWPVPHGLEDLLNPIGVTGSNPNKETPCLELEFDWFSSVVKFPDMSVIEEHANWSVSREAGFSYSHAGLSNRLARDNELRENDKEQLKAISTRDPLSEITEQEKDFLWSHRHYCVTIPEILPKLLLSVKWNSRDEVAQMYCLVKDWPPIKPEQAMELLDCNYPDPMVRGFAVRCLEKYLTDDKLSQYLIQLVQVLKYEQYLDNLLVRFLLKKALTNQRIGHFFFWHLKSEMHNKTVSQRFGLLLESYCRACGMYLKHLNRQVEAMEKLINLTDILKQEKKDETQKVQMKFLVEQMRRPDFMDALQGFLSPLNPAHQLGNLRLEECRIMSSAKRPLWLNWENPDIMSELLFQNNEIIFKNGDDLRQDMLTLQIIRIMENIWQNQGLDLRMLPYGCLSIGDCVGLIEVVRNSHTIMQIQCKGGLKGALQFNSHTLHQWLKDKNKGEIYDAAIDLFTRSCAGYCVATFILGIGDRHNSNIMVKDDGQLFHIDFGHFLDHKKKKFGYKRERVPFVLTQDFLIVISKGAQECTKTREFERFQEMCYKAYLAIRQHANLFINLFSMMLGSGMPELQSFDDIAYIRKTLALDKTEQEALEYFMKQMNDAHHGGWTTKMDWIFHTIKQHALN

CC(C)c1cc(C(=O)N2CCc3c(sc4nc(-c5ccc(NC(=O)Nc6cccc(Cl)c6)cc5)nc(N5CCOCC5)c34)C2)c(O)cc1O
IC50 [1]: 82 nM
inhibition (Heat shock protein HSP90 [2]): 72.7%
IC50 [3]: 3600 nM
inhibition at 1 µM (T-24 [4]): 65%
IC50 (T-24 [5]): 1720 nM
IC50 (J82 [6]): 760 nM
inhibition [7]: 75.2%
IC50 (SW780 [8]): 740 nM
IC50 (Heat shock protein HSP90 [9]): 147 nM
inhibition at 1 µM (J82 [10]): 84.7%
inhibition at 1 µM (SW780 [11]): 89.8%

CC(C)c1cc(C(=O)N2CCc3c(sc4nc(-c5ccc(NC(=O)Nc6cc(Cl)cc(Cl)c6)cc5)nc(N5CCOCC5)c34)C2)c(O)cc1O
IC50 [1]: 106 nM
inhibition (Heat shock protein HSP90 [2]): 68.3%
IC50 [3]: 5630 nM
inhibition at 1 µM (T-24 [4]): 67%
IC50 (T-24 [5]): 550 nM
IC50 (J82 [6]): 1590 nM
inhibition [7]: 73.5%
IC50 (SW780 [8]): 690 nM
IC50 (Heat shock protein HSP90 [9]): 365 nM
inhibition at 1 µM (J82 [10]): 69.1%
inhibition at 1 µM (SW780 [11]): 77.8%

CC(C)c1cc(C(=O)N2CCc3c(sc4nc(-c5ccc(NC(=O)Nc6ccc(F)c(Cl)c6)cc5)nc(N5CCOCC5)c34)C2)c(O)cc1O
viability at 0.5 µM (SW780 [12]): 83.5%
Activity (SW780 [13]): Active
IC50 [1]: 29 nM
Activity (SW780 [14]): inactive
inhibition (J82 [15]): Active
inhibition (Heat shock protein HSP90 [2]): 83.3%
Activity (SW780 [16]): Active
IC50 [3]: 4980 nM
Activity (SW780 [17]): Active
Activity (SW780 [18]): inactive
Activity (SW780 [19]): Active
Activity (SW780 [20]): Active
Activity (J82 [21]): Active
inhibition at 1 µM (T-24 [4]): 91.7%
viability at 0.5 µM (SW780 [22]): < 40%
Activity (SW780 [23]): 4.77%
IC50 (T-24 [5]): 410 nM
Activity (SW780 [24]): 2.31%
Activity (SW780 [25]): 5.01%
Activity (J82 [26]): Active
Activity (SW780 [27]): Active
Activity (SW780 [28]): Active
Activity (SW780 [29]): Active
viability at 0.2 µM (SW780 [30]): 87.6%
Activity (J82 [31]): Active
Activity (SW780 [32]): 3.29%
IC50 (J82 [6]): 360 nM
Activity (SW780 [33]): Active
Activity (SW780 [34]): Dose-Dependent Effect
Activity (SW780 [35]): Active
Activity (SW780 [36]): inactive
inhibition [7]: 83.1%
Activity (SW780 [37]): 4.38%
IC50 (SW780 [8]): 160 nM
Activity (SW780 [38]): Active
Activity [39]: Non-Toxic
IC50 (Heat shock protein HSP90 [9]): 69 nM
Activity (SW780 [40]): Active
inhibition at 1 µM (J82 [10]): 79.3%
Activity (SW780 [41]): Active
inhibition at 1 µM (SW780 [11]): 93.8%
Activity (SW780 [42]): 9.23%

CCNC(=O)c1noc(-c2cc(C(C)C)c(O)cc2O)c1-c1ccc(CN2CCOCC2)cc1 [LUMINESPIB]
inhibition at 1 µM (T-24 [4]): 38.8%
IC50 (T-24 [5]): 4930 nM
IC50 (J82 [6]): 5200 nM
IC50 (SW780 [8]): 3950 nM
inhibition at 1 µM (J82 [10]): 35.1%
inhibition at 1 µM (SW780 [11]): 46.4%

CC(C)c1cc(C(=O)N2CCc3c(sc4nc(N5CCOC[C@@H]5C)nc(N5CCOC[C@@H]5C)c34)C2)c(O)cc1O
IC50 [1]: 73 nM
inhibition (Heat shock protein HSP90 [2]): 56.6%
IC50 [3]: > 10000 nM
inhibition at 1 µM (T-24 [4]): 55.4%
IC50 (T-24 [5]): 1680 nM
IC50 (J82 [6]): 780 nM
inhibition [7]: 75.4%
IC50 (SW780 [8]): 370 nM
IC50 (Heat shock protein HSP90 [9]): 476 nM
inhibition at 1 µM (J82 [10]): 52.8%
inhibition at 1 µM (SW780 [11]): 79.9%
